Test results: PMC9814838, “The orphan nuclear receptor Nurr1 is responsive to non-steroidal anti-inflammatory drugs” (Communications Chemistry, 2020)
Like-named read-outs stand apart in the source and are kept apart here.

Key:
Type in all cases: cell-based
Nurr1 = biological target: T1, Nurr1 (Homo sapiens, UniProt P43354); assay: Gal4-Nurr1 hybrid reporter gene assay in HEK293T cells; details: primary screen, n ≥ 2, ^# not significant vs VP16 control
T1 construct: Nurr1 (uniprot entry: hNURR1–P43354, residues 360–598); expressed in transfected cells; host or cells: HEK293T

Nur77 = biological target: T2, Nur77 (Homo sapiens, UniProt P22736); assay: Gal4-Nur77 hybrid reporter gene assay in HEK293T cells; details: for Nur77 activity 10μM (mean fold activation) / Nur77 activity 30μM (mean fold activation): primary screen, n ≥ 2, ^# not significant vs VP16 control; for Nur77 min./max. activation: compared to 0.1% DMSO
T2 construct: Nur77 (uniprot entry: hNUR77–P22736, residues 358–598); expressed in transfected cells; host or cells: HEK293T

NOR1 = biological target: T3, NOR1 (Homo sapiens, UniProt Q92570); assay: Gal4-NOR1 hybrid reporter gene assay in HEK293T cells; details: for Nor1 activity 10μM (mean fold activation) / Nor1 activity 30μM (mean fold activation): primary screen, n ≥ 2, ^# not significant vs VP16 control; for NOR1 min./max. activation: compared to 0.1% DMSO
T3 construct: NOR1 (isoform alpha; uniprot entry: hNOR1–Q92570-1, residues 393–626); expressed in transfected cells; host or cells: HEK293T
T3 sequence (Q92570 393-626): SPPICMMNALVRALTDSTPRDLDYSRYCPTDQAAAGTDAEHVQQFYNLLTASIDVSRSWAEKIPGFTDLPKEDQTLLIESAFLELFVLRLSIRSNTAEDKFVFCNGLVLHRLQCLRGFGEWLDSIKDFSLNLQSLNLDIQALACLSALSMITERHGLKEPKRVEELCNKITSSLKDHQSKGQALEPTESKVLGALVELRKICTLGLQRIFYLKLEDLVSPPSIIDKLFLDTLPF

[1] = dash = not reported as active versus VP16 control (p < 0.05)

T1 sequence (P43354 360-598): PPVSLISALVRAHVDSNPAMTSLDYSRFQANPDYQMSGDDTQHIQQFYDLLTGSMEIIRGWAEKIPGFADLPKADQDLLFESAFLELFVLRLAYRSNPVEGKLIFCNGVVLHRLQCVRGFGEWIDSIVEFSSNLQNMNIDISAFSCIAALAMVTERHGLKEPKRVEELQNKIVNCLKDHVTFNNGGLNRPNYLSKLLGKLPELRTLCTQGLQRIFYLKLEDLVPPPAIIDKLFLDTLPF
T2 sequence (P22736 358-598): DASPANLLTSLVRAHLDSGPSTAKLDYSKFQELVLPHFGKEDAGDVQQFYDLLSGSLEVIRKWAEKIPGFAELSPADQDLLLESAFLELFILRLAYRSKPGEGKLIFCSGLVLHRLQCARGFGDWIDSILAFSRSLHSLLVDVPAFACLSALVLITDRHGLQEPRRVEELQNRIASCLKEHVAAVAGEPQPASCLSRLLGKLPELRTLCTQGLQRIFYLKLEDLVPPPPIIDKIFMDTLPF

Structure (SMILES)	Nurr1 activity 10μM (mean fold activation) (Nurr1)	Nurr1 activity 30μM (mean fold activation) (Nurr1)	Nur77 activity 10μM (mean fold activation) (Nur77)	Nur77 activity 30μM (mean fold activation) (Nur77)	Nor1 activity 10μM (mean fold activation) (NOR1)	Nor1 activity 30μM (mean fold activation) (NOR1)	Nur77 min./max. activation (Nur77; mean ± SD)	IC50 (NOR1)	NOR1 min./max. activation (NOR1; mean ± SD)	IC50 (Nur77; HEK293T, mean ± SD, n≥3)	Nur77 activity in words or dash (Nur77; [1])	IC50 (NOR1; HEK293T, mean ± SD, n≥3, read-out: NOR1 IC50)	NOR1 activity in words or dash (NOR1; [1])
CC(=O)Oc1ccccc1C(=O)O [acetylsalicylic acid]	1.02 fold	0.92 fold	0.98 fold	0.97 fold	1.03 fold	0.93 fold							
CN1C(C(=O)Nc2ccccn2)=C(O)c2sccc2S1(=O)=O [tenoxicam]	1.04 fold	0.99 fold	0.98 fold	0.98 fold	0.95 fold	0.90 fold							
Cc1ccc(C(=O)c2ccc(CC(=O)O)n2C)cc1 [tolmetin]	1.08 fold	1.13 fold	1.10 fold	0.97 fold	1.08 fold	1.00 fold							
Nc1c(CC(=O)O)cccc1C(=O)c1ccc(Br)cc1 [bromfenac]	1.09 fold	1.12 fold	1.08 fold	1.03 fold	1.26 fold	1.09 fold							
CCCCC1C(=O)N(c2ccccc2)N(c2ccccc2)C1=O [phenylbutazone]	0.94 fold	1.04 fold	0.83 fold	0.81 fold	0.94 fold	1.02 fold							
CC(C(=O)O)c1cccc(Oc2ccccc2)c1 (stereo not drawn) [fenoprofen]	1.00 fold	0.91 fold	0.99 fold	0.86 fold	1.01 fold	0.81 fold							
Cc1cnc(NC(=O)C2=C(O)c3ccccc3S(=O)(=O)N2C)s1 [meloxicam]							0.23 ± 0.02	84 ± 17 µM	0.1 ± 0.1				
COc1ccc(-c2noc(CC(=O)O)c2-c2ccc(OC)cc2)cc1 [mofezolac]	0.94 fold	0.94 fold	0.98 fold	0.69 fold	1.00 fold	0.78 fold	0.38 ± 0.02		0.32 ± 0.10	30 ± 1 µM	inverse agonism	33 ± 5 µM	inverse agonism
CC(C(=O)O)c1ccc(-c2ccccc2)c(F)c1 (stereo not drawn) [flurbiprofen]	1.25 fold	1.05 fold	0.93 fold	0.96 fold	0.98 fold	0.91 fold							
COc1ccc2c(c1)c(CC(=O)O)c(C)n2C(=O)c1ccc(Cl)cc1 [indometacin]	0.96 fold	0.91 fold	0.83 fold	toxic	0.87 fold	toxic							
Cc1cc(NC(=O)C2=C(O)c3ccccc3S(=O)(=O)N2C)no1 [isoxicam]	0.98 fold	0.90 fold	0.96 fold	0.80 fold	1.02 fold	0.87 fold							
